Results reported in PubChem BioAssay (NCI).
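Here, GI50 denotes the concentration required for 50% inhibition of growth. Definition used: TGI = concentration required for complete inhibition of growth.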

Key:
Assay in all cases: NCI anticancer screen, dose series, 384-well format
HS 578T breast = test system: HS 578T breast
K-562 leukemia = test system: K-562 leukemia
NCI-H226 lung = test system: NCI-H226 lung
NCI-H322M lung = test system: NCI-H322M lung
KM12 colon = test system: KM12 colon
OVCAR-8 ovarian = test system: OVCAR-8 ovarian
MDA-MB-231 breast = test system: MDA-MB-231 breast
HCT-15 colon = test system: HCT-15 colon
HCT-116 colon = test system: HCT-116 colon
HOP-92 NSCLC = test system: HOP-92 NSCLC
BT-549 breast = test system: BT-549 breast
PC-3 prostate = test system: PC-3 prostate
A498 renal = test system: A498 renal
ACHN renal = test system: ACHN renal
SK-OV-3 ovarian = test system: SK-OV-3 ovarian
UO-31 renal = test system: UO-31 renal
SR leukemia = test system: SR leukemia
NCI-H23 lung = test system: NCI-H23 lung
SNB-19 CNS = test system: SNB-19 CNS
A549 NSCLC = test system: A549 NSCLC
M14 melanoma = test system: M14 melanoma
EKVX NSCLC = test system: EKVX NSCLC
UACC-62 melanoma = test system: UACC-62 melanoma
RXF 393 renal = test system: RXF 393 renal
SK-MEL-2 melanoma = test system: SK-MEL-2 melanoma
MOLT-4 leukemia = test system: MOLT-4 leukemia
HL-60(TB) leukemia = test system: HL-60(TB) leukemia
SK-MEL-28 melanoma = test system: SK-MEL-28 melanoma
OVCAR-3 ovarian = test system: OVCAR-3 ovarian
MCF7 breast = test system: MCF7 breast
SK-MEL-5 melanoma = test system: SK-MEL-5 melanoma
MDA-MB-468 breast = test system: MDA-MB-468 breast
IGROV1 ovarian = test system: IGROV1 ovarian
CAKI-1 renal = test system: CAKI-1 renal
U251 glioblastoma = test system: U251 glioblastoma
NCI-H460 NSCLC = test system: NCI-H460 NSCLC
SNB-75 CNS = test system: SNB-75 CNS
UACC-257 melanoma = test system: UACC-257 melanoma
SF-539 CNS = test system: SF-539 CNS
HOP-62 NSCLC = test system: HOP-62 NSCLC
HT29 colon = test system: HT29 colon
OVCAR-5 ovarian = test system: OVCAR-5 ovarian
MALME-3M melanoma = test system: MALME-3M melanoma
SF-295 CNS = test system: SF-295 CNS
SF-268 CNS = test system: SF-268 CNS
NCI-H522 lung = test system: NCI-H522 lung
T-47D breast = test system: T-47D breast
OVCAR-4 ovarian = test system: OVCAR-4 ovarian
786-0 renal = test system: 786-0 renal
COLO 205 colon = test system: COLO 205 colon
DU-145 prostate = test system: DU-145 prostate
SN12C renal = test system: SN12C renal
MDA-MB-435 melanoma = test system: MDA-MB-435 melanoma
SW-620 colon = test system: SW-620 colon
TK-10 renal = test system: TK-10 renal

**Q.** `C[C@@H](N)COc1ccc(-c2cnc3ccc(N[C@H](C)c4cccc(F)c4)nn23)cc1` was tested. Which GI50 (HS 578T breast) did it give?
**A.** 1470 nM

**Q.** And the TGI (HS 578T breast)?
**A.** 2800 nM

**Q.** What about the GI50 (K-562 leukemia) of the same compound?
**A.** 1110 nM

**Q.** And the TGI (K-562 leukemia)?
**A.** 2360 nM

**Q.** What about the GI50 (NCI-H226 lung) of the same compound?
**A.** 1430 nM

**Q.** What about the TGI (NCI-H226 lung) of the same compound?
**A.** 2830 nM

**Q.** What about the GI50 (NCI-H322M lung) of the same compound?
**A.** 2180 nM

**Q.** What about the TGI (NCI-H322M lung) of the same compound?
**A.** 4.1 µM

**Q.** And the GI50 (KM12 colon)?
**A.** 1600 nM

**Q.** What about the TGI (KM12 colon) of the same compound?
**A.** 3000 nM

**Q.** And the GI50 (OVCAR-8 ovarian)?
**A.** 1600 nM

**Q.** And the TGI (OVCAR-8 ovarian)?
**A.** 2970 nM

**Q.** What about the GI50 (MDA-MB-231 breast) of the same compound?
**A.** 1420 nM

**Q.** What about the TGI (MDA-MB-231 breast) of the same compound?
**A.** 2760 nM

**Q.** And the GI50 (HCT-15 colon)?
**A.** 1630 nM

**Q.** What about the TGI (HCT-15 colon) of the same compound?
**A.** 3.04 µM

**Q.** And the GI50 (HCT-116 colon)?
**A.** 1490 nM

**Q.** And the TGI (HCT-116 colon)?
**A.** 2860 nM

**Q.** What about the GI50 (HOP-92 NSCLC) of the same compound?
**A.** 1510 nM

**Q.** What about the TGI (HOP-92 NSCLC) of the same compound?
**A.** 2850 nM

**Q.** And the GI50 (BT-549 breast)?
**A.** 1370 nM

**Q.** What about the TGI (BT-549 breast) of the same compound?
**A.** 2660 nM

**Q.** What about the GI50 (PC-3 prostate) of the same compound?
**A.** 1460 nM

**Q.** What about the TGI (PC-3 prostate) of the same compound?
**A.** 2910 nM

**Q.** What about the GI50 (A498 renal) of the same compound?
**A.** 1590 nM

**Q.** And the TGI (A498 renal)?
**A.** 2960 nM

**Q.** And the GI50 (ACHN renal)?
**A.** 1570 nM

**Q.** And the TGI (ACHN renal)?
**A.** 2940 nM

**Q.** And the GI50 (SK-OV-3 ovarian)?
**A.** 1470 nM

**Q.** And the TGI (SK-OV-3 ovarian)?
**A.** 2850 nM

**Q.** What about the GI50 (UO-31 renal) of the same compound?
**A.** 1790 nM

**Q.** And the TGI (UO-31 renal)?
**A.** 3.19 µM

**Q.** What about the GI50 (SR leukemia) of the same compound?
**A.** 34.5 nM

**Q.** What about the TGI (SR leukemia) of the same compound?
**A.** 125 nM

**Q.** What about the GI50 (NCI-H23 lung) of the same compound?
**A.** 1540 nM

**Q.** What about the TGI (NCI-H23 lung) of the same compound?
**A.** 3.15 µM

**Q.** What about the GI50 (SNB-19 CNS) of the same compound?
**A.** 2060 nM

**Q.** What about the TGI (SNB-19 CNS) of the same compound?
**A.** 4.04 µM

**Q.** And the GI50 (A549 NSCLC)?
**A.** 1560 nM

**Q.** What about the TGI (A549 NSCLC) of the same compound?
**A.** 2940 nM

**Q.** What about the GI50 (M14 melanoma) of the same compound?
**A.** 1730 nM

**Q.** What about the TGI (M14 melanoma) of the same compound?
**A.** 3.11 µM

**Q.** What about the GI50 (EKVX NSCLC) of the same compound?
**A.** 1020 nM

**Q.** And the TGI (EKVX NSCLC)?
**A.** 2220 nM

**Q.** What about the GI50 (UACC-62 melanoma) of the same compound?
**A.** 1720 nM

**Q.** What about the TGI (UACC-62 melanoma) of the same compound?
**A.** 3.1 µM

**Q.** And the GI50 (RXF 393 renal)?
**A.** 1170 nM

**Q.** What about the TGI (RXF 393 renal) of the same compound?
**A.** 2390 nM

**Q.** And the GI50 (SK-MEL-2 melanoma)?
**A.** 1270 nM

**Q.** And the TGI (SK-MEL-2 melanoma)?
**A.** 2540 nM

**Q.** And the GI50 (MOLT-4 leukemia)?
**A.** 1130 nM

**Q.** What about the TGI (MOLT-4 leukemia) of the same compound?
**A.** 2350 nM

**Q.** What about the GI50 (HL-60(TB) leukemia) of the same compound?
**A.** 1070 nM

**Q.** And the TGI (HL-60(TB) leukemia)?
**A.** 2270 nM

**Q.** And the GI50 (SK-MEL-28 melanoma)?
**A.** 1630 nM

**Q.** What about the TGI (SK-MEL-28 melanoma) of the same compound?
**A.** 3.01 µM

**Q.** What about the GI50 (OVCAR-3 ovarian) of the same compound?
**A.** 1620 nM

**Q.** What about the TGI (OVCAR-3 ovarian) of the same compound?
**A.** 3.16 µM

**Q.** And the GI50 (MCF7 breast)?
**A.** 1140 nM

**Q.** And the TGI (MCF7 breast)?
**A.** 2370 nM

**Q.** And the GI50 (SK-MEL-5 melanoma)?
**A.** 1030 nM

**Q.** And the TGI (SK-MEL-5 melanoma)?
**A.** 2220 nM

**Q.** And the GI50 (MDA-MB-468 breast)?
**A.** 1000 nM

**Q.** What about the TGI (MDA-MB-468 breast) of the same compound?
**A.** 2170 nM

**Q.** And the GI50 (IGROV1 ovarian)?
**A.** 1620 nM

**Q.** What about the TGI (IGROV1 ovarian) of the same compound?
**A.** 3.05 µM

**Q.** And the GI50 (CAKI-1 renal)?
**A.** 1680 nM

**Q.** What about the TGI (CAKI-1 renal) of the same compound?
**A.** 3.05 µM

**Q.** And the GI50 (U251 glioblastoma)?
**A.** 1600 nM

**Q.** And the TGI (U251 glioblastoma)?
**A.** 2960 nM

**Q.** And the TGI (NCI-H460 NSCLC)?
**A.** 1440 nM

**Q.** And the GI50 (SNB-75 CNS)?
**A.** 1590 nM

**Q.** What about the TGI (SNB-75 CNS) of the same compound?
**A.** 2960 nM

**Q.** And the GI50 (UACC-257 melanoma)?
**A.** 1380 nM

**Q.** What about the TGI (UACC-257 melanoma) of the same compound?
**A.** 2690 nM

**Q.** What about the GI50 (SF-539 CNS) of the same compound?
**A.** 1420 nM

**Q.** And the TGI (SF-539 CNS)?
**A.** 2740 nM

**Q.** What about the GI50 (HOP-62 NSCLC) of the same compound?
**A.** 1730 nM

**Q.** What about the TGI (HOP-62 NSCLC) of the same compound?
**A.** 3.16 µM

**Q.** And the GI50 (HT29 colon)?
**A.** 1300 nM

**Q.** And the TGI (HT29 colon)?
**A.** 2590 nM

**Q.** And the GI50 (OVCAR-5 ovarian)?
**A.** 1250 nM

**Q.** What about the TGI (OVCAR-5 ovarian) of the same compound?
**A.** 2610 nM

**Q.** What about the GI50 (MALME-3M melanoma) of the same compound?
**A.** 1680 nM

**Q.** And the TGI (MALME-3M melanoma)?
**A.** 3.06 µM

**Q.** And the GI50 (SF-295 CNS)?
**A.** 1640 nM

**Q.** What about the TGI (SF-295 CNS) of the same compound?
**A.** 3.02 µM

**Q.** What about the GI50 (SF-268 CNS) of the same compound?
**A.** 1590 nM

**Q.** What about the TGI (SF-268 CNS) of the same compound?
**A.** 2960 nM

**Q.** And the GI50 (NCI-H522 lung)?
**A.** 1160 nM

**Q.** What about the TGI (NCI-H522 lung) of the same compound?
**A.** 2390 nM

**Q.** What about the GI50 (T-47D breast) of the same compound?
**A.** 1350 nM

**Q.** And the TGI (T-47D breast)?
**A.** 2660 nM

**Q.** And the GI50 (OVCAR-4 ovarian)?
**A.** 1490 nM

**Q.** And the TGI (OVCAR-4 ovarian)?
**A.** 3.24 µM

**Q.** And the GI50 ([…]-0 renal)?
**A.** 1550 nM

**Q.** And the TGI (786-0 renal)?
**A.** 2900 nM

**Q.** What about the GI50 (COLO 205 colon) of the same compound?
**A.** 1620 nM

**Q.** What about the TGI (COLO 205 colon) of the same compound?
**A.** 3.01 µM

**Q.** What about the GI50 (DU-145 prostate) of the same compound?
**A.** 1530 nM

**Q.** And the TGI (DU-145 prostate)?
**A.** 2960 nM

**Q.** What about the GI50 (SN12C renal) of the same compound?
**A.** 1560 nM

**Q.** What about the TGI (SN12C renal) of the same compound?
**A.** 2910 nM

**Q.** What about the GI50 (MDA-MB-435 melanoma) of the same compound?
**A.** 1440 nM

**Q.** And the TGI (MDA-MB-435 melanoma)?
**A.** 2760 nM

**Q.** What about the GI50 (SW-620 colon) of the same compound?
**A.** 1430 nM

**Q.** And the TGI (SW-620 colon)?
**A.** 2780 nM

**Q.** What about the GI50 (TK-10 renal) of the same compound?
**A.** 1520 nM

**Q.** What about the TGI (TK-10 renal) of the same compound?
**A.** 2900 nM
